The results in this text go back to patent publication US20140066389A1, “METHOD AND PHARMACEUTICAL TO TREAT SPINAL DISCS” (priority 2000, published 2014).

For this assay, the system named is spinal disc. Briefly: Disc injections containing only one constituent. Type of assay: in vivo. The conditions noted are these: injections with only one of glucosamine and chondroitin sulfate. An excerpt:
Common to all formulations according to this invention is the inclusion, in an injectable tolerated by the spinal disc, of both glucosamine and chondroitin sulfate (in a buffered injectable solution).

For `N[C@H]1C(O)O[C@H](CO)[C@@H](O)[C@@H]1O` (some centres unmarked) [glucosamine], the “value of the injection” value is reported as “without value”. For the compound chondroitin sulfate, the “value of the injection” value is reported as “without value”.
